Reference: PubChem BioAssay (NCI)
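Each compound was tested at five concentrations against cells in 96-well plates for 48 hours. TGI is the concentration that stops growth completely.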

Assays:
Test in all cases: growth of human tumour cells (NCI), 48 h
[1] = test system: OVCAR-4 ovarian
[2] = test system: MALME-3M melanoma
[3] = test system: NCI-H226 lung
[4] = test system: MDA-MB-231 breast
[5] = test system: SF-268 CNS
[6] = test system: SR leukemia
[7] = test system: K-562 leukemia
[8] = test system: U251 CNS
[9] = test system: T-47D breast
[10] = test system: SF-539 CNS
[11] = test system: KM12 colon
[12] = test system: MCF7 breast
[13] = test system: A549 NSCLC
[14] = test system: DU-145 prostate
[15] = test system: MDA-MB-435
[16] = test system: RPMI-8226 leukemia
[17] = test system: HOP-92 NSCLC
[18] = test system: SK-MEL-2 melanoma
[19] = test system: NCI/ADR-RES ovarian
[20] = test system: HCT-116 colon
[21] = test system: UACC-62 melanoma
[22] = test system: UO-31 renal
[23] = test system: OVCAR-5 ovarian
[24] = test system: SNB-19 CNS
[25] = test system: MOLT-4 leukemia
[26] = test system: CAKI-1 renal
[27] = test system: IGROV1 ovarian
[28] = test system: HL-60(TB) leukemia
[29] = test system: RXF 393 renal
[30] = test system: CCRF-CEM leukemia
[31] = test system: LOX IMVI melanoma
[32] = test system: SK-MEL-5 melanoma
[33] = test system: TK-10 renal
[34] = test system: 786-0 renal
[35] = test system: SN12C renal
[36] = test system: HOP-62 NSCLC
[37] = test system: EKVX NSCLC
[38] = test system: COLO 205 colon
[39] = test system: SW-620 colon
[40] = test system: HS 578T breast
[41] = test system: NCI-H460 lung
[42] = test system: OVCAR-3 ovarian
[43] = test system: NCI-H23 lung
[44] = test system: M14 melanoma
[45] = test system: HT29 colon
[46] = test system: SF-295 CNS
[47] = test system: SNB-75 CNS
[48] = test system: MDA-N
[49] = test system: A498 renal
[50] = test system: HCC-2998 colon
[51] = test system: ACHN renal
[52] = test system: PC-3 prostate
[53] = test system: SK-OV-3 ovarian
[54] = test system: UACC-257 melanoma
[55] = test system: HCT-15 colon
[56] = test system: SK-MEL-28 melanoma
[57] = test system: OVCAR-8 ovarian
[58] = test system: NCI-H522 lung

Compound: CC(C)=CCc1ccc2[nH]c3c(c2c1)C(=O)C(=O)C(C)=C3C(O)C(C)O (stereo unspecified)
- TGI [1]: 13.2 µM
- TGI [2]: 3.37 µM
- TGI [3]: 34.2 µM
- TGI [4]: 15.8 µM
- TGI [5]: 25 µM
- TGI [6]: 12.4 µM
- TGI [7]: 5.78 µM
- TGI [8]: 13.2 µM
- TGI [9]: 6.11 µM
- TGI [10]: 34 µM
- TGI [11]: 30.1 µM
- TGI [12]: 3.4 µM
- TGI [13]: 56.5 µM
- TGI [14]: 22.4 µM
- TGI [15]: 9.57 µM
- TGI [16]: 6.17 µM
- TGI [17]: 3.51 µM
- TGI [18]: > 82.9 µM
- TGI [19]: > 85.4 µM
- TGI [20]: 3.43 µM
- TGI [21]: 11.6 µM
- TGI [22]: 2.96 µM
- TGI [23]: 34.2 µM
- TGI [24]: 31 µM
- TGI [25]: 4.83 µM
- TGI [26]: 11.5 µM
- TGI [27]: 7.2 µM
- TGI [28]: 2.53 µM
- TGI [29]: 4.68 µM
- TGI [30]: 4.98 µM
- TGI [31]: 4.73 µM
- TGI [32]: 7.22 µM
- TGI [33]: 4.76 µM
- TGI [34]: 3.27 µM
- TGI [35]: 45.8 µM
- TGI [36]: 37.8 µM
- TGI [37]: 30.1 µM
- TGI [38]: 4.89 µM
- TGI [39]: 4.7 µM
- TGI [40]: 50.1 µM
- TGI [41]: 37.2 µM
- TGI [42]: 13 µM
- TGI [43]: 31.8 µM
- TGI [44]: 3.9 µM
- TGI [45]: 35.1 µM
- TGI [46]: 25 µM
- TGI [47]: 34.1 µM
- TGI [48]: 19.7 µM
- TGI [49]: 25.8 µM
- TGI [50]: 14.8 µM
- TGI [51]: 11.5 µM
- TGI [52]: 43.4 µM
- TGI [53]: 29.7 µM
- TGI [54]: 3.71 µM
- TGI [55]: 16.3 µM
- TGI [56]: 28.1 µM
- TGI [57]: 3.91 µM

Compound: c1ccc(C[n+]2ccc3c(c2)CCCC3)cc1
- TGI [1]: > 100 µM
- TGI [2]: > 100 µM
- TGI [3]: > 100 µM
- TGI [4]: > 100 µM
- TGI [5]: > 100 µM
- TGI [6]: > 100 µM
- TGI [7]: > 100 µM
- TGI [8]: > 100 µM
- TGI [9]: > 100 µM
- TGI [10]: > 100 µM
- TGI [11]: > 100 µM
- TGI [12]: > 100 µM
- TGI [13]: > 100 µM
- TGI [14]: > 100 µM
- TGI [15]: > 100 µM
- TGI [16]: > 100 µM
- TGI [17]: > 100 µM
- TGI [18]: > 100 µM
- TGI [19]: > 100 µM
- TGI [20]: > 100 µM
- TGI [21]: > 100 µM
- TGI [22]: > 100 µM
- TGI [23]: > 100 µM
- TGI [24]: > 100 µM
- TGI [25]: > 100 µM
- TGI [26]: > 100 µM
- TGI [27]: > 100 µM
- TGI [28]: > 100 µM
- TGI [29]: > 100 µM
- TGI [30]: > 100 µM
- TGI [31]: > 100 µM
- TGI [32]: > 100 µM
- TGI [33]: > 100 µM
- TGI [34]: > 100 µM
- TGI [35]: > 100 µM
- TGI [36]: > 100 µM
- TGI [37]: 85.8 µM
- TGI [38]: > 100 µM
- TGI [39]: > 100 µM
- TGI [40]: > 100 µM
- TGI [41]: > 100 µM
- TGI [42]: > 100 µM
- TGI [43]: > 100 µM
- TGI [44]: > 100 µM
- TGI [45]: > 100 µM
- TGI [46]: > 100 µM
- TGI [47]: > 100 µM
- TGI [48]: > 100 µM
- TGI [50]: > 100 µM
- TGI [51]: > 100 µM
- TGI [52]: > 100 µM
- TGI [53]: > 100 µM
- TGI [54]: > 100 µM
- TGI [55]: > 100 µM
- TGI [56]: > 100 µM
- TGI [57]: > 100 µM

Compound: Cc1ccc(S(=O)(=O)N2CCCN(S(=O)(=O)c3ccc(C)cc3)CC2)cc1
- TGI [1]: > 100 µM
- TGI [3]: > 100 µM
- TGI [4]: > 100 µM
- TGI [5]: > 100 µM
- TGI [6]: > 100 µM
- TGI [7]: > 100 µM
- TGI [8]: > 100 µM
- TGI [9]: > 100 µM
- TGI [11]: > 100 µM
- TGI [12]: > 100 µM
- TGI [14]: > 100 µM
- TGI [15]: > 100 µM
- TGI [58]: > 100 µM
- TGI [17]: > 100 µM
- TGI [19]: > 100 µM
- TGI [20]: > 100 µM
- TGI [22]: > 100 µM
- TGI [24]: > 100 µM
- TGI [25]: > 100 µM
- TGI [29]: > 100 µM
- TGI [30]: > 100 µM
- TGI [32]: > 100 µM
- TGI [33]: > 100 µM
- TGI [35]: > 100 µM
- TGI [38]: > 100 µM
- TGI [39]: > 100 µM
- TGI [40]: > 100 µM
- TGI [41]: > 100 µM
- TGI [42]: > 100 µM
- TGI [43]: > 100 µM
- TGI [44]: > 100 µM
- TGI [45]: > 100 µM
- TGI [46]: > 100 µM
- TGI [47]: > 100 µM
- TGI [48]: > 100 µM
- TGI [49]: 69.2 µM
- TGI [50]: > 100 µM
- TGI [51]: > 100 µM
- TGI [52]: > 100 µM
- TGI [54]: > 100 µM
- TGI [55]: > 100 µM
- TGI [56]: > 100 µM
- TGI [57]: > 100 µM
